Reference: publication doi:[…]/2021.10.07.463234v2 (biorxiv, 2021)
Where a name gives a salt, the structure may show the parent alone.

Target: SARS-CoV-2 Mac1 (Severe acute respiratory syndrome coronavirus 2, UniProt P0DTD1)
Experiment: biochemical
Conditions: for inhibition at 100 µM: read-out: %inhibition; for %inhibition: 100 µM, inhibitor

Structure (SMILES) | inhibition at 100 µM [%] | %inhibition [%]
CC(C(=O)O)c1ccc(C(=O)c2cccs2)cc1 (stereo not drawn) [Suprofen] | 18 | 
CC1(C)S[C@@H]2[C@H](NC(=O)[C@H](N)c3ccc(O)cc3)C(=O)N2[C@H]1C(=O)O [Amoxicillin trihydrate] |  | 5.69
CCOC(=O)[C@H](CCc1ccccc1)N[C@@H](C)C(=O)N(CC(=O)O)C1Cc2ccccc2C1 [Delapril Hydrochloride] | 0.215 | 
C[C@H]1C[C@H]2[C@@H]3CCC4=CC(=O)C=C[C@]4(C)[C@H]3C(=O)C[C@]2(C)[C@@]1(O)C(=O)CO [Meprednisone] | 8.14 | 
Cc1cc(O)ccc1Cl [Chlorocresol] | 24.2 | 
CCCCCCCCCC(=O)N[C@@H](Cc1c[nH]c2ccccc12)C(=O)N[C@H](CC(N)=O)C(=O)N[C@@H](CC(=O)O)C(=O)N[C@@H]1C(=O)NCC(=O)N[C@@H](CCCN)C(=O)N[C@@H](CC(=O)O)C(=O)N[C@H](C)C(=O)N[C@@H](CC(=O)O)C(=O)NCC(=O)N[C@H](CO)C(=O)N[C@@H]([C@H](C)CC(=O)O)C(=O)N[C@@H](CC(=O)c2ccccc2N)C(=O)O[C@@H]1C [Daptomycin] | 1.7 | 
C[C@H]1C[C@H]2[C@@H]3CCC4=CC(=O)C=C[C@]4(C)[C@@]3(F)[C@@H](O)C[C@]2(C)[C@@]1(O)C(=O)CO [Betamethasone] |  | 1.437
COc1ccccc1OCC(O)COC(N)=O (stereo not drawn) [Methocarbamol] | 36.3 | 
C[C@@H](O)[C@H]1C(=O)N2C(C(=O)O)=C(SCCNC=N)C[C@H]12 [Imipenem] | 9.79 | 
Cc1ccc(NC(=O)c2ccc(CN3CCN(C)CC3)cc2)cc1Nc1nc(-c2cccnc2)cs1 [Masitinib (AB1010)] | 7.66 | 
CN(C)CC/C=C1/c2ccccc2Sc2ccc(Cl)cc21 [Chlorprothixene hydrochloride] |  | 0
CC1=C(C/C=C(\C)CCC[C@H](C)CCC[C@H](C)CCCC(C)C)C(=O)c2ccccc2C1=O [Vitamin K1] | 19.5 | 
C[C@@H](O)[C@H]1C(=O)N2C(C(=O)O)=C(S[C@@H]3CN[C@H](CNS(N)(=O)=O)C3)[C@H](C)[C@H]12 [Doripenem] |  | 1.128
CC(=C(CCOC(=O)C(C)C)SSC(CCOC(=O)C(C)C)=C(C)N(C=O)Cc1cnc(C)nc1N)N(C=O)Cc1cnc(C)nc1N (stereo in doubt) [Sulbutiamine] | 12.8 | 
Nc1nc2c(ncn2COC(CO)CO)c(=O)[nH]1 [Ganciclovir] | 49.4 | 
Cc1cnc(NC(=O)C2=C(O)c3ccccc3S(=O)(=O)N2C)s1 [Meloxicam] | 41.6 | 
C[C@@H]1O[C@@H](OC[C@H]2O[C@@H](Oc3c(-c4ccc(O)c(O)c4)oc4cc(O)cc(O)c4c3=O)[C@H](O)[C@@H](O)[C@@H]2O)[C@H](O)[C@H](O)[C@H]1O [Rutin] | 3.42 | 
CCN(CC)C(=O)c1cccnc1 [Nikethamide] | 0 | 
CCn1cc(C(=O)O)c(=O)c2cc(F)c(N3CCNC(C)C3)c(F)c21 (stereo not drawn) [Lomefloxacin] | 0 | 
CC[C@H](C)C(=O)O[C@H]1CCC=C2C=C[C@H](C)[C@H](CC[C@@H]3C[C@@H](O)CC(=O)O3)[C@H]21 [Mevastatin] | 12.1 | 
CN1[C@@H]2CC[C@H]1C[C@@H](OC(=O)c1c[nH]c3ccccc13)C2 [Tropisetron] |  | 6.575
COc1cc(N)c(Cl)cc1C(=O)N[C@H]1CCN(CCCOc2ccc(F)cc2)C[C@H]1OC [Cisapride hydrate] | 0 | 
COc1ccnc(C[S+]([O-])c2nc3cc(OC(F)F)ccc3[nH]2)c1OC (stereo not drawn) [Pantoprazole] |  | 6.936
CCC/N=C1\S/C(=C\c2ccc(OC[C@H](O)CO)c(Cl)c2)C(=O)N1c1ccccc1C [Ponesimod] | 0 | 
O=C(O)CCC(=O)O [Sodium succinate] | 0 | 

Structure (SMILES) | inhibition at 100 µM [%] | %inhibition [%]
NC(=O)Cc1cccc(C(=O)c2ccccc2)c1N [Nepafenac] | 0 | 
Cc1cc(NS(=O)(=O)c2ccc(N)cc2)no1 [Sulfamethoxazole] |  | 24.84
CCc1c2c(nc3ccc(OC(=O)N4CCC(N5CCCCC5)CC4)cc13)-c1cc3c(c(=O)n1C2)COC(=O)[C@]3(O)CC [Irinotecan HCl Trihydrate] | 0 | 
NC(=O)NO [Hydroxyurea] | 20.8 | 
CN(C/C=C/C#CC(C)(C)C)Cc1cccc2ccccc12 [Terbinafine HCl] |  | 13.33
CC(OC(=O)OC1CCCCC1)OC(=O)C1=C(CSc2nnnn2CCN(C)C)CS[C@@H]2[C@H](NC(=O)Cc3csc(N)n3)C(=O)N12 (stereo partly drawn) [Cefotiam Hexetil Hydrochloride] | 0 | 
NC(CO)C(=O)NNCc1ccc(O)c(O)c1O (stereo not drawn) [Benserazide HCl] | 7.42 | 
NCC(=O)O [Glycine] | 0 | 
FC(F)(F)C(Cl)Br (stereo not drawn) [Halothane] | 0 | 
CC[C@H]1[C@@H](O)[C@@H]2[C@H](CC[C@]3(C)[C@@H]([C@H](C)CCC(=O)O)CC[C@@H]23)[C@@]2(C)CC[C@@H](O)C[C@@H]12 [Obeticholic Acid] | 37.3 | 
CC(CCc1ccc(O)cc1)NCC(O)c1ccc(O)cc1 (stereo not drawn) [Ractopamine HCl] | 0 | 
Cc1ccccc1N1C(=O)c2cc(S(N)(=O)=O)c(Cl)cc2NC1C (stereo not drawn) [Metolazone] | 0 | 
Cc1ccc(C)c(OCCCC(C)(C)C(=O)O)c1 [Gemfibrozil] | 45.1 | 
COC(=O)C1=C(C)NC(C)=C(C(=O)OCCN(C)Cc2ccccc2)C1c1cccc([N+](=O)[O-])c1 (stereo not drawn) [Nicardipine] | 0 | 
Nc1ccc(S(=O)(=O)c2ccc(N)cc2)cc1 [Dapson] | 0 | 
NC[C@H](O)c1ccc(O)c(O)c1 [Noradrenaline bitartrate monohydrate] | 18.9 | 
C[C@]12CCC(=O)C(O)=C1CC[C@@H]1[C@@H]2CC[C@]2(C)C(=O)CC[C@@H]12 [Formestane] | 0 | 
CC(C)/N=c1\cc2n(-c3ccc(Cl)cc3)c3ccccc3nc-2cc1Nc1ccc(Cl)cc1 [Clofazimine] | 5.33 | 
C[n+]1ccccc1C=NO [Pralidoxime Iodide] | 22.4 | 
COc1cc(Cc2cnc(N)nc2N)cc(OC)c1OC [Trimethoprim] | 4.05 | 
CCOc1ccccc1OCCN[C@H](C)Cc1ccc(OC)c(S(N)(=O)=O)c1 [Tamsulosin hydrochloride] | 0 | 
CC[C@@H]1C(=O)N(C)c2cnc(Nc3ccc(C(=O)N[C@H]4CC[C@H](N5CCN(CC6CC6)CC5)CC4)cc3OC)nc2N1C(C)C [Volasertib (BI 6727)] | 0 | 
COc1ccccc1N1CCN(CC(O)COc2cccc3ccccc23)CC1 (stereo not drawn) [Naftopidil DiHCl] |  | 0
CO/N=C(\C(=O)N[C@@H]1C(=O)N2C(C(=O)O)=C(C[N+]3(C)CCCC3)CS[C@H]12)c1csc(N)n1 [Cefepime Dihydrochloride Monohydrate] | 0 | 
COC1=C(OC)C(=O)C(CCCCCCCCCCO)=C(C)C1=O [Idebenone] | 7.11 | 

Structure (SMILES) | inhibition at 100 µM [%] | %inhibition [%]
Cn1c(=O)cc(N2CCC[C@@H](N)C2)n(Cc2ccccc2C#N)c1=O [Alogliptin] | 12.8 | 
O=C(O)CCCC[C@@H]1SC[C@@H]2NC(=O)N[C@@H]21 [Biotin (Vitamin B7)] | 0 | 
CCN(CC)C(=O)[C@]1(c2ccccc2)C[C@@H]1CN (racemic) [Milnacipran HCl] | 0 | 
CN(C)CCC[C@@]1(c2ccc(F)cc2)OCc2cc(C#N)ccc21 [Escitalopram Oxalate] | 0 | 
CNC(=O)[C@@H](NC(=O)[C@H](CC(C)C)[C@H](O)C(=O)NO)C(C)(C)C [Marimastat (BB-2516)] | 3.16 | 
CCCCC1=NC2(CCCC2)C(=O)N1Cc1ccc(-c2ccccc2-c2nnn[nH]2)cc1 [Irbesartan] | 2.32 | 
CCCCC(=O)O[C@H]1CC[C@H]2[C@@H]3CCc4cc(O)ccc4[C@H]3CC[C@]12C [Estradiol valerate] | 3.33 | 
COc1c(N2C[C@@H]3CCCN[C@@H]3C2)c(F)cc2c(=O)c(C(=O)O)cn(C3CC3)c12 [Moxifloxacin HCl] |  | 0
CCCN(CCC)C(=O)C1=Cc2ccc(-c3ccc(C(=O)N4CCCC4)cc3)cc2N=C(N)C1 [Motolimod (VTX-2337)] | 0 | 
Clc1ccc(CCC(Cn2ccnc2)Sc2c(Cl)cccc2Cl)cc1 (stereo not drawn) [Butoconazole] |  | 13.63
C[C@]12CC[C@H]3[C@@H](CC[C@@]45O[C@@H]4C(O)=C(C#N)C[C@]35C)[C@@H]1CC[C@@H]2O [Trilostane] | 0 | 
CCn1cc(C(=O)O)c(=O)c2cc(F)c(N3CCNCC3)nc21 [Enoxacin] |  | 29.69
CCN(C)C(=O)Oc1cccc([C@H](C)N(C)C)c1 [Rivastigmine] |  | 0
Cc1cccc(C)c1NC(=O)C1CCCCN1C (stereo not drawn) [Mepivacaine HCl] |  | 2.617
Nc1ccc(S(=O)(=O)Nc2ccnn2-c2ccccc2)cc1 [Sulfaphenazole] | 0 | 
CC(C)(CO)[C@@H](O)C(=O)NCCC(=O)O [Calcium D-Panthotenate] | 14.2 | 
COc1cc2c(cc1OC)C(=O)C(CC1CCN(Cc3ccccc3)CC1)C2 (stereo not drawn) [Donepezil] |  | 5.95
NC(=O)c1ccc(I)c([N+](=O)[O-])c1 [Iniparib (BSI-201)] | 31 | 
NS(=O)(=O)Cc1noc2ccccc12 [Zonisamide] | 0 | 
OC1C[C@H]2CC[C@@H](C1)N2 (stereo partly drawn) [Nortropine Hydrochloride] | 6.37 | 
C[C@H](CCC(=O)O)[C@H]1CC[C@H]2[C@@H]3[C@@H](O)C[C@@H]4C[C@H](O)CC[C@]4(C)[C@H]3CC[C@]12C [Ursodiol] | 0 | 
Nc1nc(Cl)nc2c1ncn2[C@@H]1O[C@H](CO)[C@@H](O)[C@@H]1F [Clofarabine] | 44.7 | 
COc1cc(/C=C/C(=O)CC(=O)/C=C/c2ccc(O)c(OC)c2)ccc1O [Curcumin] | 1.88 | 
Brc1c(NC2=NCCN2)ccc2nccnc12 [Brimonidine Tartrate] | 19.3 | 
CCN1CCN(C(=O)N[C@@H](C(=O)N[C@@H]2C(=O)N3[C@@H]2SC(C)(C)[C@@H]3C(=O)O)c2ccccc2)C(=O)C1=O [Piperacillin Sodium] | 24.2 | 
